Experimental data as given in patent US20080269167A1, “Preparation Comprising Iron(III) Complex Compounds And Redox-Active Substance(s)” (VIFOR (INTERNATIONAL) AG, priority 2005, published 2008).

How the values were obtained:
[1] = pH 7; relative to normal hydrogen electrode; cited from earlier work
[2] = Reaction of iron(III)-polymaltose complex with ascorbic acid in buffered solution, UV-VIS, exclusion of oxygen; assay type: physicochemical
Source text: The following measurements were obtained when iron(III)-polymaltose complex with ascorbic acid (ascorbic acid) was investigated at pH 3.0, 5.5 and 8.0:
The buffered solutions (buffers as described above, see Geisser, P., Arneim. -Forsch./Drug Res. 1990, 40 (II), 7, 754-760) were mixed in a molar ratio of Fe(III):ascorbic acid of 1:1, the concentration of Fe(III) and ascorbic acid in the mixture being 5×10^−5 mol/l in each case, and investigated using a conventional UV-VIS spectrophotometer. The operation was carried out with the strict exclusion of oxygen.

[3] = pH 3.0, reaction time 2 h, Fe(III):ascorbic acid 1:1, 5x10^-5 mol/l
[4] = pH 3.0, reaction time 4 h, Fe(III):ascorbic acid 1:1
[5] = pH 5.5, reaction time 2 h, Fe(III):ascorbic acid 1:1
[6] = pH 8.0, reaction time 2 h, Fe(III):ascorbic acid 1:1
[7] = pH 8.0, reaction time 4 h, Fe(III):ascorbic acid 1:1

Row | Compound | redox potential [1] [mV] | reaction with ascorbic acid to give dehydroascorbic acid ([2]; pH 3, 5.5 and 8, buffered solution, exclusion of oxygen) | Formation of Fe2+ ions [2, 3] [%] | Formation of dehydroascorbic acid [2, 3] [%] | Formation of Fe2+ ions [2, 4] [%] | Formation of dehydroascorbic acid [2, 4] [%] | Formation of Fe2+ ions [2, 5] [%] | Formation of dehydroascorbic acid [2, 5] [%] | Formation of Fe2+ ions [2, 6] [%] | Formation of dehydroascorbic acid [2, 6] [%] | Formation of Fe2+ ions [2, 7] [%] | Formation of dehydroascorbic acid [2, 7] [%] | reaction with ascorbic acid to dehydroascorbic acid and Fe(II) ([2]; within a period of 4 hours, pH values of from 3 to 8)
1 | O=C1O[C@H]([C@@H](O)CO)C(O)=C1O [ascorbic acid, reference compound] | −66 | – | – | – | – | – | – | – | – | – | – | – | –
2 | iron(III)-polymaltose complex | −332 | does not react | 2 | 2 | 7 | 7 | 0 | 0 | 5 | 9 | 5 | 13 | reacts only slowly
